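Growth conditions: 96-well plates. Treatment: test compound, 48 hours, 5 concentrations. Analysis: linear interpolation between bracketing concentrations; unreached endpoints set to highest concentration. The concentration for 50% growth inhibition is given as GI50.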 Calls of active or inactive are those of the source. Cut-off read from the data, not from the text of the source: active = GI50 up to about 1.1 µM and inactive = higher.
How the values were obtained:
Experiment in all cases: DTP human tumour cell line panel, 48 h
[1] = tested on: HCT-15
[2] = tested on: M14
[3] = tested on: MDA-MB-231
[4] = tested on: BT-549
[5] = tested on: MDA-N
[6] = tested on: A498
[7] = tested on: LXFL 529
[8] = tested on: Malme-3M
[9] = tested on: SNB-78
[10] = tested on: OVCAR-5
[11] = tested on: KM-20L2
[12] = tested on: DMS-273
[13] = tested on: UACC-257
[14] = tested on: UO-31
[15] = tested on: UACC-62
[16] = tested on: HOP-92
[17] = tested on: T47D
[18] = tested on: OVCAR-8
[19] = tested on: CCRF-CEM
[20] = tested on: NCI-H226
[21] = tested on: M19-MEL
[22] = tested on: K562
[23] = tested on: NCI/ADR-RES
[24] = tested on: OVCAR-4
[25] = tested on: PC-3
[26] = tested on: HOP-62
[27] = tested on: TK-10
[28] = tested on: IGROV-1
[29] = tested on: SNB-19
[30] = tested on: SR
[31] = tested on: DU-145
[32] = tested on: HCC 2998
[33] = tested on: MDA-MB-435
[34] = tested on: SK-OV-3
[35] = tested on: SF-295
[36] = tested on: A549
[37] = tested on: NCI-H23
[38] = tested on: SK-MEL-5
[39] = tested on: XF498
[40] = tested on: LOX IMVI
[41] = tested on: MOLT-4
[42] = tested on: COLO 205
[43] = tested on: SNB-75
[44] = tested on: SN12C
[45] = tested on: HOP-18
[46] = tested on: EKVX
[47] = tested on: NCI-H522
[48] = tested on: MCF7
[49] = tested on: KM12
[50] = tested on: CAKI-1
[51] = tested on: HL-60
[52] = tested on: SF-539
[53] = tested on: DMS-114
[54] = tested on: RPMI-8226
[55] = tested on: Hs-578T
[56] = tested on: SK-MEL-28
[57] = tested on: DLD-1
[58] = tested on: NCI-H460
[59] = tested on: OVCAR-3
[60] = tested on: RXF 631
[61] = tested on: SK-MEL-2
[62] = tested on: HT-29
[63] = tested on: SF-268
[64] = tested on: ACHN
[65] = tested on: 786-0
[66] = tested on: SW-620
[67] = tested on: U-251
[68] = tested on: HCT-116
[69] = tested on: RXF 393

`CC1OC(CC(=O)O)CC2=C1C(=O)c1c(O)cccc1C2=O` (centres undefined) [NANAOMYCIN] was tested, and the GI50 [1] was 53.8 nM, the GI50 [2] was 140 nM (active) and the GI50 [3] was 218 nM (active). The GI50 [4] was 116 nM (active), the GI50 [5] was 182 nM (active) and the GI50 [6] was 900 nM (active). The GI50 [7] was 85.1 nM (active), the GI50 [8] was 203 nM (active) and the GI50 [9] was 130 nM (active). For the same compound, the GI50 [10] was 1390 nM (inactive), the GI50 [11] was 225 nM (active) and the GI50 [12] was 212 nM (active). The GI50 [13] was 96.8 nM (active), the GI50 [14] was 483 nM (active) and the GI50 [15] was 116 nM (active). For the same compound, the GI50 [16] was 125 nM (active), the GI50 [17] was 188 nM (active) and the GI50 [18] was 128 nM (active). The GI50 [19] was 19.4 nM (active), the GI50 [20] was 977 nM (active) and the GI50 [21] was 84.5 nM (active). The GI50 [22] was 22 nM (active), the GI50 [23] was 179 nM (active) and the GI50 [24] was 274 nM (active). The GI50 [25] was 241 nM (active), the GI50 [26] was 1550 nM (inactive) and the GI50 [27] was 929 nM (active). The GI50 [28] was 360 nM (active), the GI50 [29] was 1660 nM (inactive) and the GI50 [30] was 33.6 nM (active). The GI50 [31] was 1120 nM (inactive), the GI50 [32] was 468 nM (active) and the GI50 [33] was 138 nM (active). The GI50 [34] was 4000 nM (inactive), the GI50 [35] was 1080 nM (active) and the GI50 [36] was 2080 nM (inactive). For the same compound, the GI50 [37] was 560 nM (active), the GI50 [38] was 289 nM (active) and the GI50 [39] was 166 nM (active). For the same compound, the GI50 [40] was 42.1 nM (active), the GI50 [41] was 30.9 nM (active) and the GI50 [42] was 47.4 nM (active). For the same compound, the GI50 [43] was 1500 nM (inactive), the GI50 [44] was 290 nM (active) and the GI50 [45] was 2410 nM (inactive). For the same compound, the GI50 [46] was 708 nM (active), the GI50 [47] was 27.8 nM (active) and the GI50 [48] was 142 nM (active). The GI50 [49] was 1270 nM (inactive), the GI50 [50] was 95.5 nM (active) and the GI50 [51] was 16 nM (active). The GI50 [52] was 1040 nM (active), the GI50 [53] was 129 nM (active) and the GI50 [54] was 44.7 nM (active). The GI50 [55] was 142 nM (active), the GI50 [56] was 63 nM (active) and the GI50 [57] was 19.2 nM (active). For the same compound, the GI50 [58] was 1740 nM (inactive), the GI50 [59] was 81.7 nM (active) and the GI50 [60] was 600 nM (active). For the same compound, the GI50 [61] was 331 nM (active), the GI50 [62] was 62.4 nM (active) and the GI50 [63] was 316 nM (active). For the same compound, the GI50 [64] was 229 nM (active), the GI50 [65] was 137 nM (active) and the GI50 [66] was 36.1 nM (active). For the same compound, the GI50 [67] was 1030 nM (active), the GI50 [68] was 49.9 nM (active) and the GI50 [69] was 24.2 nM (active).

Reference: ChEMBL document CHEMBL1201862, “PubChem BioAssay data set” (2004)
